Results reported in PubChem BioAssay (NCI).
“And” between values parts separate entries of the source, which are not always exact repeats. Identical values can stand only once.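 Cells were grown in 96-well plates and exposed to each compound for 48 hours at five concentrations; endpoints were interpolated linearly between bracketing concentrations, or set to the highest concentration if not reached. Here, GI50 denotes the concentration required for 50% inhibition of growth. The concentration for full growth arrest is given as TGI.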 Where a SMILES comes first, the peptide text is derived from it.

Columns and labels:
Test in all cases: NCI anticancer screen, dose series, 48 h
OVCAR-3 ovarian = system: OVCAR-3 ovarian
MDA-MB-231 breast = system: MDA-MB-231 breast
SK-MEL-5 melanoma = system: SK-MEL-5 melanoma
CCRF-CEM leukemia = system: CCRF-CEM leukemia
EKVX NSCLC = system: EKVX NSCLC
HCT-15 colon = system: HCT-15 colon
OVCAR-5 ovarian = system: OVCAR-5 ovarian
HT29 colon = system: HT29 colon
NCI-H522 lung = system: NCI-H522 lung
NCI-H23 lung = system: NCI-H23 lung
SK-OV-3 ovarian = system: SK-OV-3 ovarian
HCC-2998 colon = system: HCC-2998 colon
SK-MEL-2 melanoma = system: SK-MEL-2 melanoma

Compound | TGI (OVCAR-3 ovarian) | TGI (MDA-MB-231 breast) [µM] | TGI (SK-MEL-5 melanoma) [µM] | TGI (CCRF-CEM leukemia) [µM] | TGI (EKVX NSCLC) | TGI (HCT-15 colon) | TGI (OVCAR-5 ovarian) | TGI (HT29 colon) [µM] | TGI (NCI-H522 lung) [µM] | TGI (NCI-H23 lung) [µM] | TGI (SK-OV-3 ovarian) | TGI (HCC-2998 colon) [µM] | TGI (SK-MEL-2 melanoma) | GI50 (OVCAR-3 ovarian) [µM] | GI50 (EKVX NSCLC) [µM] | GI50 (HCT-15 colon) [µM] | GI50 (OVCAR-5 ovarian) [µM] | GI50 (SK-OV-3 ovarian) [µM] | GI50 (SK-MEL-2 melanoma) [µM]
CCC(C)C(NC(=O)C(CCCCN)NC(=O)C(NC(=O)C(CCC(N)=O)NC(=O)C(N)CCCNC(=N)N)C(C)CC)C(=O)NC(Cc1c[nH]c2ccccc12)C(=O)NC(Cc1ccccc1)C(=O)NC(CCC(N)=O)C(=O)NC(CC(N)=O)C(=O)NC(CCCNC(=N)N)C(=O)NC(CCCNC(=N)N)C(=O)NC(CCSC)C(=O)NC(CCCCN)C(=O)NC(Cc1c[nH]c2ccccc12)C(=O)NC(CCCCN)C(=O)NC(CCCCN)C(=O)N1CCCC1C(=O)NC(C)C(=O)NC(CCCCN)C(=O)NC(CCCNC(=N)N)C(=O)NC(CCCCN)C(=O)NC(CC(C)C)C(=O)NC(Cc1ccccc1)C(=O)NCC(=O)O (centres undefined) (H-RQIKIWFQNRRMKWKKPAKRKLFG-OH; configuration not given here) | > 25 µM | > 25 | > 25 | > 25 | > 25 µM | > 25 µM | > 25 µM | > 25 | > 25 | > 25 | > 25 µM | > 25 | > 25 µM |  |  |  |  |  | 
CCCCCC(C[N+]1(C)CCOCC1)C(=O)/C=C/c1ccccc1 (centres undefined) | 27.4 µM |  | 28.1 | > 35.3 | 38.2 µM | 25 µM | 37.3 µM | 10.3 | 9.39 | 32 | > 88.6 µM | 33.7 | 29.5 µM |  |  |  |  |  | 
CN(C)C(=O)OCOC(=O)N(C)C | > 100 µM |  | > 100 | > 100 | > 100 µM | > 100 µM | > 100 µM | > 100 | > 100 | > 100 | > 100 µM | > 100 | > 100 µM |  |  |  |  |  | 
CCCCN1C=CN2c3nc4cc(C)c(C)cc4n3C(C(=O)OC)=C(C(=O)OC)C12 (centres undefined) | > 100 µM |  | > 100 | > 100 | > 100 µM | > 100 µM | > 100 µM | > 100 | > 100 | > 100 | > 100 µM | > 100 | > 100 µM |  |  |  |  |  | 
COC(=O)C1OC(Oc2cc(O)c3c(=O)cc(-c4ccc(O)cc4)oc3c2)C(O)C(O)C1O (centres undefined) | > 100 µM |  | > 100 | > 100 | > 100 µM | > 100 µM | > 100 µM | > 100 | > 100 | > 100 | > 100 µM | > 100 | > 100 µM |  |  |  |  |  | 
OCC1OC(n2cnc3c2NC=NC[C@H]3O)C(O)C1O (some centres undefined) | > 450 µM |  | > 71.3 | > 284 | > 450 µM | > 450 µM | > 450 µM | > 450 | > 450 | > 450 | > 450 µM | > 450 | > 450 µM |  |  |  |  |  | 
CN(C)C(=O)NCCN1CCCCCc2ccccc21 | > 100 µM | > 100 | 71.9 | > 100 | > 100 µM | > 100 µM | > 100 µM | > 100 | > 100 | > 100 | > 100 µM | > 100 | > 100 µM |  |  |  |  |  | 
CCOC(=O)C(N)CSC(=O)NC (centres undefined) | 290 µM | 340 | 393 | 147 | 546 µM | 312 µM | 689 µM | 399 | 472 | 469 | 621 µM | 644 | 276 µM |  |  |  |  |  | 
CC1=CC(C2/C(=N/O)C=C(C)CC2(C)C)C(O)C(C)(C)C1 (centres undefined) | 23.3 µM | 31.6 | 29.5 | 60.4 | 31.4 µM | 33.6 µM | 34.8 µM | 29.3 |  | 32.8 | 38.1 µM | 30 | 30.6 µM |  |  |  |  |  | 
C=C1C(=O)O[C@H]2[C@H]1[C@@H](OC(=O)C=C(C)C)CC1=C[C@@H](C[C@@]3(C)O[C@@H]23)OC1=O | 4.77 µM and 15.6 µM |  | 15 | 1120 | 10.2 µM and 5.83 µM | 3.97 µM and 11.7 µM | 32.1 µM and 49 µM | 12.5 | 3.08 | 13.5 | 36.9 µM and 43.9 µM | 34.9 | 17.6 µM and 30 µM | 4.92 | 0.839 | 3.46 | 30 | 25 | 13
